Laboratory results published in patent publication US12053465B2, “KCC2 expression enhancing compounds and uses thereof” (Whitehead Institute for Biomedical Research, priority 2017, dated 2024).

Key:
KCC2 expression = experiment: Western blot of KCC2 in organotypic mouse brain slices; type: cell-based; conditions: organotypic neonatal mouse brain slices, treated 7 days, vs DMSO, MeBIO or medium-only control
human RTT neurons [1] = experiment: Neuronal morphology analysis of cultured human RTT neurons; type: cell-based; conditions: for neurite complexity (Sholl analysis): vs DMSO- or MeBIO-treated
Description: Moreover, a reduction in the number or the strength of excitatory glutamatergic synapses in RTT neurons has been observed in postmortem RTT patient brain samples (30), mouse models of RTT (53), and human stem cell-derived RTT neurons (54). Electrophysiology recording was utilized to assess whether KEECs could rescue the deficits in EGABA and excitatory synaptic transmission of RTT neurons. […] We further investigated whether the beneficial effect of KEECs is a direct result of the increases in neuronal KCC2 gene expression. […] Deficits in a number of morphological measurements, including nuclei size and neurite complexity and branching, are hallmarks of RTT neurons (54-56). […] To validate the morphological measurements, electrophysiological measurements of the neuronal membrane capacitance (Cm), an indicator of neuronal cell size (57) that is reduced in RTT neurons, were conducted. […] Fluorescent images of randomly-selected neurons were acquired on a Nikon Eclipse Ti epifluorescence microscope equipped with 20× lens. Nucleus size analysis of DAPI-stained neuronal nucleus were performed with ImageJ. Sholl analysis and measurements of the total neurite length and branch points were performed with the Simple Neurite Tracer plugin of the ImageJ software. Morphological analyses were carried out with about 60 randomly-selected neurons per treatment group. Image acquisition and analysis were carried out by different researchers, and automated analysis software pipeline were utilized to reduce human bias.

immature mouse neurons = experiment: Gramicidin-perforated patch recording of EGABA in DIV6-7 immature mouse neurons; type: cell-based
human RTT neurons [2] = experiment: Gramicidin-perforated patch recording of EGABA in cultured human RTT neurons; type: cell-based
Mecp2 mutant mice [3] = experiment: Plethysmograph breathing measurement in Mecp2 mutant mouse model of RTT; type: in vivo; conditions: male Mecp2 mutant mice; daily injection, two weeks; vs DMSO- or EtOH-injected control
Method: (§1) We assessed the in vivo efficacy of KEECs by treating RTT disease-related symptoms such as breathing pauses and reduced locomotion (58) in a Mecp2 mutant mouse model of RTT. […] Plethysmograph and locomotion measurements were made in 4-6 week-old male Mecp2 mutant animals as a pre-treatment control time point and were then injected daily with KEECs KW-2449 or Piperine. Injection of the solvent DMSO or ethanol (EtOH) served as vehicle controls (FIG. 15A). The same two behavioral measurements in vehicle or KEEC-injected Mecp2 mutant animals were performed again two weeks after the start of daily injections. Each animal's ‘after injection’ data were compared to the ‘before injection’ level to assess behavioral changes.
Male Mecp2 mutant mice (Mecp2^−/y, e.g. the Bird model) between 4-12 weeks of age were used for the in vivo experiments. Subjects were divided into drug treated KO (Piperine/KW-2449), and vehicle treated KO (EtOH/DMSO) groups. Animals were randomly assigned to treatment arms with approximately equivalent numbers in each group. […]
A full body plethysmograph chamber (EMKA Inc, PA) was used to measure breathing patterns. […] For each test, the subject was left in the chamber for 20 minutes, afterwards its breath pattern was recorded for the next 20 minutes, and the estimated amplitude modulation index (eAMI) was calculated from the breath trace to label breath pauses automatically. […]

Mecp2 mutant mice [4] = experiment: Locomotion (infrared beam break) in Mecp2 mutant mouse model of RTT; type: in vivo
Method: as §1
Male Mecp2 mutant mice (Mecp2^−/y, e.g. the Bird model) between 4-12 weeks of age were used for the in vivo experiments. Subjects were divided into drug treated KO (Piperine/KW-2449), and vehicle treated KO (EtOH/DMSO) groups. Animals were randomly assigned to treatment arms with approximately equivalent numbers in each group.
KW-2449 stock solution was prepared at 10 mg/ml with DMSO, and Piperine stock solution at 30 mg/ml with EtOH. 20 μl of stock solution were diluted with 1 ml saline for injection. Daily drug treatments or sham injections were performed on both groups between P28 and P56, for at least two weeks, as Mecp2 mutant mice start to show symptoms around P28 and die around P60. Both following tests were performed on both groups of mice before the injections start, and repeated at the end of the injection period. The animals' performance was then compared before and after drug/vehicle injections.
To measure the subjects' nighttime locomotion, a 1-D infrared light-beam frame (ActiMot, TSE-systems, MO) was used. Animals were single-housed in new cages with the same setup as their home cages. The infrared monitor was set up for each cage and the beam crossings was recorded between 17:00 and 9:00 the next morning, where the lights were turned off between 19:00 and 7:00. The average beam crossing frequency during the night (21:00-5:00) was used as the subject's activity score, and the average beam crossing frequency after lights on (7:00-9:00) was used as the subject's day time activity score. The time periods where the mouse is stationary for >5 minutes are discarded to reduce artifact caused by the mouse sleeping. As we look at both day-time and night-time locomotion, a bonferroni correction with repeated comparison number of 2 was applied. All behavioral analyses were performed by experimenters who were blind to the treatment condition.

## O=C1Nc2cc(Br)ccc2/C1=C1/Nc2ccccc2/C1=N\O [BIO, (2Z,3E)-6′-bromo-3-(hydroxyimino)-[2,3′-biindolinylidene]-2′-one]
KCC2 expression
  KCC2 protein level: enhanced KCC2 expression levels
Human RTT neurons [1]
  nucleus size: significantly increase the nucleus size
  number of neurite branches: significantly increase
  total neurite length: significantly increase
  neurite complexity (Sholl analysis): significant increase in neurite complexity

## O=C(c1ccc(/C=C/c2n[nH]c3ccccc23)cc1)N1CCNCC1 [KW-2449, (E)-(4-(2-(1H-indazol-3-yl)vinyl)phenyl)(piperazin-1-yl)methanone]
KCC2 expression
  KCC2 protein level: enhanced KCC2 expression levels
Immature mouse neurons; DIV6-7 immature mouse neurons, untreated about −50 mV
  EGABA after treatment: about −70 mV
Immature mouse neurons; DIV6 cultured immature mouse neurons
  significant hyperpolarizing shift in EGABA: induces significant hyperpolarizing shift in EGABA
Human RTT neurons [2]; RTT neurons transfected with KCC2 shRNA
  shift in EGABA: failed to hyperpolarize the EGABA
Human RTT neurons [2]; cultured human RTT neurons, DMSO about −50 mV, WT −70 mV
  shift in EGABA: significant hyperpolarizing shift in EGABA to levels comparable to WT neurons
Human RTT neurons [1]
  nucleus size: significantly increase the nucleus size
  number of neurite branches: significantly increase
  total neurite length: significantly increase
  neurite complexity (Sholl analysis): significant increase in neurite complexity
Mecp2 mutant mice [3]
  frequency of breathing pauses: significantly reduced the frequency of breathing pauses
Mecp2 mutant mice [4]; Mecp2 mutant animals, vs DMSO control
  night-time locomotion (infrared beam break frequency in home cage): significantly increased night-time locomotion
Mecp2 mutant mice [4]; male Mecp2 mutant mice, daily injection, two weeks, vs DMSO- or EtOH-injected control
  locomotive activities: remarkable increase in locomotive activities
